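Test compounds were applied to cells in 96-well plates for 48 hours at 5 doses. GI50 = concentration required for 50% inhibition of growth. The concentration for full growth arrest is given as TGI.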

Common to all, as to assay: NCI tumour cell line growth inhibition, 48 h
In assay [1] the test system is CAKI-1 renal.
The test system of assay [2] is LOX IMVI melanoma.
The test system of assay [3] is HCC-2998 colon.
Assay [4] deals with SNB-19 CNS.
For assay [5], the system named is SK-MEL-5 melanoma.
Assay [6] deals with UACC-257 melanoma.
Assay [7] relates to MALME-3M melanoma.
In assay [8] the test system is HT29 colon.
Assay [9] has as its system K-562 leukemia.
Assay [10] concerns SR leukemia.

On to `O=C1C(=Nc2ccc(Nc3ccccc3)cc2)Oc2ccccc21`, for which the TGI in [1] was 7.58 µM; in [2], 4.4 µM; in [3], 23.4 µM; in [4], 8.25 µM; in assay [5], 16.1 µM; in [6], 4.56 µM. For the same molecule, the TGI in assay [7] was 9.71 µM; in assay [8], 4.53 µM; in assay [9], 11.4 µM; in assay [10] it was 4.71 µM.
As for `O=C(OCC(Cl)(Cl)Cl)N1CC[C@H](C2CCCCC2)C1`, the TGI in assay [1] came to 88.9 µM; in assay [2] it was 41.1 µM; in assay [3], 34.3 µM; in [4] it was 37.5 µM; in assay [5], 30 µM; in assay [6] it was 38.7 µM. Further, the TGI in assay [9] amounted to 53 µM; in assay [10], 40.6 µM.
Turning to `Cc1ccc(/C=C2/N=C(N/N=C\C(O)C(O)C(O)C(O)CO)NC2=O)cc1` (stereo not drawn), the TGI in assay [1], in assay [2], in assay [3], in assay [4], in assay [5] and in assay [6] was more than 100 µM throughout. For the same molecule, the TGI in assay [7], in assay [8], in assay [9] and in assay [10] was more than 100 µM in each case. Moreover, the GI50 in assay [9] is more than 100 µM.
For the molecule `CC(C)Oc1cccc(N2C(=NCc3c[nH]c4ccccc34)Nc3ccncc3S2(=O)=O)c1`, the TGI in assay [1] was more than 100 µM; in [2], more than 100 µM; in assay [3], 97.9 µM; in assay [4] it was more than 100 µM; in assay [5], 27.7 µM; in assay [6], more than 100 µM. Further, the TGI was 58.8 µM in assay [7], more than 100 µM in assay [8], more than 100 µM in assay [9] and more than 100 µM in assay [10].
Consider `Cc1cc(OP2(=O)NCc3ncccc3O2)ccc1Cl` (stereo not drawn), for which the TGI in assay [1], in assay [2], in assay [3], in assay [4], in assay [5] and in [6] was more than 100 µM each time. Moreover, the TGI in assay [9] and in [10] was more than 100 µM in each case.
`C=C(CN(C)C)C(=O)c1ccc(C(=O)C(=C)CN(C)C)cc1`: the TGI in [1], in assay [2], in assay [3], in [4], in [5] and in assay [6] was more than 100 µM throughout. Further, the TGI in assay [7], in [8], in assay [9] and in assay [10] was more than 100 µM each time.
As to `COc1cc(O)c2c(=O)c(OC)c(-c3ccc(OC)c(O)c3)oc2c1`, the TGI was 74.4 µM in assay [1]; more than 100 µM in assay [2]; more than 100 µM in assay [3]; more than 100 µM in [4]; more than 100 µM in assay [5]; more than 100 µM in assay [6]. Also, the TGI in assay [7], in assay [8], in [9] and in [10] was more than 100 µM each time.
Consider `C[C@@H]1CCC2[C@@H](C)[C@@H](O[C@H]3O[C@@H]4O[C@@]5(C)CCC6[C@H](C)CCC([C@H]3C)[C@]64OO5)O[C@@H]3O[C@@]4(C)CCC1[C@@]23OO4` (stereo partly drawn), for which the TGI in assay [1], in assay [2], in assay [3], in assay [4], in assay [5] and in assay [6] was more than 25 µM each time. The TGI in [8], in [9] and in [10] was more than 25 µM each time.
For `CC(C)(CO)CNc1nc(N)nc(Cl)c1/C=N/O`, the TGI is more than 100 µM in assay [1]; more than 100 µM in assay [2]; more than 100 µM in assay [3]; 18.8 µM in assay [5]; more than 100 µM in assay [6]; more than 100 µM in assay [7]. Also, the TGI in assay [8], in [9] and in assay [10] was more than 100 µM throughout.
In the case of `CSc1csc(-c2ccc(-c3ccc(-c4cc(SC)cs4)s3)s2)c1`, the TGI in assay [2], in assay [3], in [4], in assay [5], in [6] and in assay [7] was more than 100 µM throughout. Besides, the TGI in assay [8], in assay [9] and in assay [10] was more than 100 µM each time.
For `CC(C)C1=CC23CCC4C(C)(C(=O)O)CCCC4(C)C2CC1C1C(=O)N(CCCCCCN2C(=O)C4C5CC6C7(C)CCCC(C)(C(=O)O)C7CCC6(C=C5C(C)C)C4C2=O)C(=O)C13` (stereo not drawn), the TGI in [3] was 27.1 µM; in [4] it was 34.8 µM; in assay [5] it was 26.9 µM; in assay [7], 31.2 µM; in assay [8], 13.8 µM; in assay [9], more than 100 µM. Besides, the TGI in assay [10] stood at 34.1 µM.
`OCCCc1ccc2c(c1)[C@H](CO)[C@@H](c1ccc(O)cc1)O2`: the TGI in assay [2] was more than 100 µM; in assay [3], 37.3 µM; in assay [4], more than 100 µM; in [5], 32.7 µM; in assay [6], more than 100 µM; in assay [7] it was 29.2 µM. Also, the TGI in [8], in assay [9] and in [10] was more than 100 µM in each case.
Take `[N-]=[N+]=CC(=O)OC(CCl)CCl`: the TGI in assay [2], in assay [3], in [4], in [5], in assay [6] and in assay [7] was more than 100 µM each time. Besides, the TGI in assay [8], in [9] and in assay [10] was more than 100 µM throughout.
In the case of `O=C(NN1C(=O)CS(=O)(=O)C1c1ccc(C(F)(F)F)cc1)c1ccncc1` (stereo not drawn), the TGI in assay [1], in assay [2], in [3], in assay [4], in assay [5] and in [6] was more than 100 µM in each case. For the same molecule, the TGI in assay [7], in assay [8] and in [10] was more than 100 µM each time.

Source of the values: PubChem BioAssay (NCI).
